In patent publication US7928140B2, “Benzothiazole PI3 kinase modulators for cancer treatment” (Amgen Inc., priority 2007, dated 2011):

How the values were obtained:
[1] = target: T1, PI3K α (Homo sapiens, UniProt P42336); assay: In vitro PI3 kinase enzyme assay (alpha), ATP loss, bioluminescence; format: biochemical; conditions: read-out: PI3Kα ATP loss IC50;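 note: purified p110α/p85 heterodimer acting on PtdIns(4,5)P2 at room temperature, remaining ATP read by luminescence, inhibition scaled between compound-free wells with and without enzyme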
T1 construct: Full length p110 subunits of PI3K α, β and δ, N-terminally labeled with polyHis tag; polyHis (N); made in house; host or cells: Sf9 insect cells (baculovirus)
T1 sequence (P42336 whole entry, species assumed): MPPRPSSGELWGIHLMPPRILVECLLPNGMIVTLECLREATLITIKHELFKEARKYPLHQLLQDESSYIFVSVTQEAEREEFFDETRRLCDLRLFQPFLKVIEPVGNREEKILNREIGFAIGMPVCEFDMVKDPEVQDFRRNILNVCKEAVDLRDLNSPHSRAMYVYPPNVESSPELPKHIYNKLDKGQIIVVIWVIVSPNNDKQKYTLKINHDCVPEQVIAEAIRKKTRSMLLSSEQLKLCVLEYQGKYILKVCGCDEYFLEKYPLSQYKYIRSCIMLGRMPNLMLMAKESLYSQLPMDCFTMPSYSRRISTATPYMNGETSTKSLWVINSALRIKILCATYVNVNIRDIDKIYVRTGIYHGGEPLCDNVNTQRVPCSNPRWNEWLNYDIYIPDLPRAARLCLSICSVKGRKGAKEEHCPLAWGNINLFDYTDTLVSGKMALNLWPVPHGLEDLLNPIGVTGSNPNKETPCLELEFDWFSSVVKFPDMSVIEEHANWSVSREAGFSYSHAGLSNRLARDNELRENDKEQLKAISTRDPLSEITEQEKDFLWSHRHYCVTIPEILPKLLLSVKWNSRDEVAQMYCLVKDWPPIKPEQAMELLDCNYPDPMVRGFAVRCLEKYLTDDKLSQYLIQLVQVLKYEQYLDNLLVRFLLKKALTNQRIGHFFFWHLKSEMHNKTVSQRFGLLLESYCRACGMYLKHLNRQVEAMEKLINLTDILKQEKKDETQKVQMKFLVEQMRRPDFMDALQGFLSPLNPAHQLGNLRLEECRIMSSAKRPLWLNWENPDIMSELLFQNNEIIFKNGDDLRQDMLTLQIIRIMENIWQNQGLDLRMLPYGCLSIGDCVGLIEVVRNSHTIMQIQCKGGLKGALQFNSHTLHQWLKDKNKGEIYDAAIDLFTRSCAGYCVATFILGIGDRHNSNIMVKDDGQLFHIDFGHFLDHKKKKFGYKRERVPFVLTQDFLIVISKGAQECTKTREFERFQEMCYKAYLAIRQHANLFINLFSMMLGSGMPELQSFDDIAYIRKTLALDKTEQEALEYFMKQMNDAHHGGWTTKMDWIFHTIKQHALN
T1 sequence (P27986 whole entry partner, species assumed): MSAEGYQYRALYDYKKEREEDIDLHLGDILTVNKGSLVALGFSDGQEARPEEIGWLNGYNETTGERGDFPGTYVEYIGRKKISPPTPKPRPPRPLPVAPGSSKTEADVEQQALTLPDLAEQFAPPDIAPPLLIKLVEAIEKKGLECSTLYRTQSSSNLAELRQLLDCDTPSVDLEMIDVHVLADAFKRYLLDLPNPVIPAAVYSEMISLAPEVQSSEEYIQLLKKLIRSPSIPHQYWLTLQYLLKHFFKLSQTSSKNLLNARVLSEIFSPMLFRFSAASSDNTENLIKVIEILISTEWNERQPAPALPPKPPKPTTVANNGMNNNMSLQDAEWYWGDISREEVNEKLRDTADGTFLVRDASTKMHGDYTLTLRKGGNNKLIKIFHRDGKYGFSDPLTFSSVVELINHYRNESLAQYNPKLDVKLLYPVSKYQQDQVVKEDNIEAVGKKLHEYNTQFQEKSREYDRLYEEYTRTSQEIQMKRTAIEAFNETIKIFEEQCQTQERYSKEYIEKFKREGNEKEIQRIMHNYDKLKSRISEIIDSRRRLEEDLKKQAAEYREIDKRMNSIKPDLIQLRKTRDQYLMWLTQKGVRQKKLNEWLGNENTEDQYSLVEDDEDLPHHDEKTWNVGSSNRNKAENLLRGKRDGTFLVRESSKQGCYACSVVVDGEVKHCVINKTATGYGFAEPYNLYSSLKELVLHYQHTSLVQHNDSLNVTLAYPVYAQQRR
Procedure: Full length p110 subunits of PI3K α, β and δ, N-terminally labeled with polyHis tag, were co-expressed with p85 in baculovirus expression vectors in sf9 insect cells. P110/p85 heterodimers were purified by sequential Ni-NTA, Q-HP, and Superdex-100 chromatography. Purified α, β and δ isozymes were stored at −20° C. in 20 mM Tris, pH 8, 0.2M NaCl, 50% glycerol, 5 mM DTT, 2 mM Na cholate.
PI3K enzyme assays (alpha, beta, delta and gamma) were performed in 25 mL with the above final concentrations of components in white polypropylene plates (Costar catalogue #3355). Phosphatidyl inositol phosphoacceptor, PtdIns(4,5)P2 (eg. P4508) was obtained from Echelon Biosciences. The ATPase activity of the alpha and gamma isozymes was not greatly stimulated by PtdIns(4,5)P2 under these conditions and was therefore omitted from the assay of these isozymes. Test compounds were dissolved in DMSO and diluted with three-fold serial dilutions. The compound in DMSO (1 μL) was added per test well, and the inhibition relative to reactions containing no compound, with and without enzyme was determined. After assay incubation at RT, the reaction was stopped and residual ATP determined by addition of an equal volume of a commercial ATP bioluminescence kit (Perkin Elmer EasyLite) according to the manufacturer's instructions, and detected using an Analyst GT luminometer.

[2] = target: T2, PI3K β (Homo sapiens, UniProt P42338); assay: In vitro PI3 kinase enzyme assay (beta), ATP loss, bioluminescence; format: biochemical; conditions: read-out: PI3Kβ ATP loss IC50;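 note: purified p110β/p85 heterodimer with PtdIns(4,5)P2 as acceptor, incubated at room temperature, leftover ATP read by luminescence, inhibition scaled to compound-free wells with and without enzyme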
T2 construct: Full length p110 subunits of PI3K α, β and δ, N-terminally labeled with polyHis tag; polyHis (N); made in house; host or cells: Sf9 insect cells (baculovirus)
T2 sequence (P42338 whole entry): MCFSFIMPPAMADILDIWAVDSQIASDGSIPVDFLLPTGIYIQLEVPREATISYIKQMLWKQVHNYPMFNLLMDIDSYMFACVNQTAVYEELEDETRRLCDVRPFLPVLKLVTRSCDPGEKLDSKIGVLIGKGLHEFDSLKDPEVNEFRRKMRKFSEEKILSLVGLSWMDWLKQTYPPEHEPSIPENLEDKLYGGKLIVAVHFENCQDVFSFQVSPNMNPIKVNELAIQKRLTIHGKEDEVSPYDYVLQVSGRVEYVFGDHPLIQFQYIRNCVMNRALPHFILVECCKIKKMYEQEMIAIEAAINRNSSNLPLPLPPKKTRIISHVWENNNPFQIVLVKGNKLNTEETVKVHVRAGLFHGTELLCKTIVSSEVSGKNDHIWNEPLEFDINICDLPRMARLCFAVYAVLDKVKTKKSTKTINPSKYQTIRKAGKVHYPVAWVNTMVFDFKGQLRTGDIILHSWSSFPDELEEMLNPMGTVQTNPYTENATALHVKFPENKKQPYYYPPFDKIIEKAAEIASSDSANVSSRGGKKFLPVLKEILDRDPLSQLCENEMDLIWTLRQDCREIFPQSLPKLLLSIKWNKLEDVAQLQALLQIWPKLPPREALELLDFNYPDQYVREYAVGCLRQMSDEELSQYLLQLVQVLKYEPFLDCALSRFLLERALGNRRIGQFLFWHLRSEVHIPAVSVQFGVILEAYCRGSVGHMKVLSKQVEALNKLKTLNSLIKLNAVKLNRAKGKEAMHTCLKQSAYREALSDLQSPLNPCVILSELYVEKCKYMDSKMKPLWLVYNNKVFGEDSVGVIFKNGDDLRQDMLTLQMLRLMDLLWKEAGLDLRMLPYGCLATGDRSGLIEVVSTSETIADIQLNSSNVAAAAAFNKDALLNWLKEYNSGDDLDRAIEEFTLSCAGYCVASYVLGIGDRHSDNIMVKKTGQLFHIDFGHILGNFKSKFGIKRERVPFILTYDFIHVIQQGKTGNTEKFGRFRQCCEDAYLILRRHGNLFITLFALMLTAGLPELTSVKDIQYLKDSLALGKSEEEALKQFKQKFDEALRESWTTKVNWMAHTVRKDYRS
T2 sequence (P27986 whole entry partner): as the sequence (P27986 whole entry partner, species assumed) above

[3] = system: phosphorylation of Serine 473 in Akt, HCT 116 human colon carcinoma cells; assay: Cell-based phospho-AKT Ser473 assay (MSD sandwich immunoassay, IGF-1 stimulated); conditions: Homo sapiens, HCT-116, HCT 116 cells; read-out: HCT 116 pAKT IC50
In short: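 Akt Ser473 phosphorylation was measured by MSD electrochemiluminescent sandwich immunoassay in lysates of HCT116 cells (16,000 cells/well). Cells received a compound dilution series for 2 h at 37 °C before a 15 min IGF-1 (100 ng/ml) stimulus, with IC50 calculated from the dose-response.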

Row | IC50 [1] | IC50 [2] | IC50 [3] | Compound
1 | 11.2 nM | 42.3 nM | 329 nM | CNc1nc2ccc(-c3cnc(Cl)c(NS(=O)(=O)c4c(C)cccc4Cl)c3)cc2s1 [Example 318, 2-chloro-N-(2-chloro-5-(2-(methylamino)-1,3-benzothiazol-6-yl)-3-pyridinyl)-6-methylbenzenesulfonamide]
2 | 9.2 nM | 36.5 nM | 474 nM | CNc1nc2ccc(-c3cnc(Cl)c(NS(=O)(=O)c4c(Cl)cccc4Cl)c3)cc2s1 [Example 319, 2,6-dichloro-N-(2-chloro-5-(2-(methylamino)-1,3-benzothiazol-6-yl)-3-pyridinyl)benzenesulfonamide]
3 | 14.6 nM | 61.8 nM | 448 nM | CNc1nc2ccc(-c3cnc(Cl)c(NS(=O)(=O)c4ccccc4F)c3)cc2s1 [Example 320, N-(2-chloro-5-(2-(methylamino)-1,3-benzothiazol-6-yl)-3-pyridinyl)-2-fluorobenzenesulfonamide]
4 | 12 nM | 22.2 nM | 672 nM | CNc1nc2ccc(-c3cnc(Cl)c(NS(=O)(=O)c4ccc(C(C)=O)cc4)c3)cc2s1 [Example 321, 4-acetyl-N-(2-chloro-5-(2-(methylamino)-1,3-benzothiazol-6-yl)-3-pyridinyl)benzenesulfonamide]
5 | 10.8 nM | 25.4 nM | 558 nM | CNc1nc2ccc(-c3cnc(Cl)c(NS(=O)(=O)c4ccc(C(C)(C)NC(C)=O)cc4)c3)cc2s1 [Example 322, N-(1-(4-((2-chloro-5-(2-(methylamino)-1,3-benzothiazol-6-yl)-3-pyridinyl)sulfamoyl)phenyl)-1-methylethyl)acetamide]
6 | 19.6 nM | 33.2 nM | 915 nM | CC(=O)NC(C)(C)c1ccc(S(=O)(=O)Nc2cc(-c3ccc4nc(N)sc4c3)cnc2Cl)cc1 [Example 323, N-(1-(4-((5-(2-amino-1,3-benzothiazol-6-yl)-2-chloro-3-pyridinyl)sulfamoyl)phenyl)-1-methylethyl)acetamide]
7 | 10.9 nM | 17.1 nM | 151 nM | CC(C)(O)c1ccc(S(=O)(=O)Nc2cc(-c3ccc4nc(N)sc4c3)cnc2Cl)cc1 [Example 324, N-(5-(2-amino-1,3-benzothiazol-6-yl)-2-chloro-3-pyridinyl)-4-(1-hydroxy-1-methylethyl)benzenesulfonamide]
8 | 18 nM | 20.6 nM | 468 nM | CC(=O)c1ccc(S(=O)(=O)Nc2cc(-c3ccc4nc(N)sc4c3)cnc2Cl)cc1 [Example 325, 4-acetyl-N-(5-(2-amino-1,3-benzothiazol-6-yl)-2-chloro-3-pyridinyl)benzenesulfonamide]
9 | 22.3 nM | 34.5 nM | > 5000 nM | O=S(=O)(Nc1cc(-c2ccc3ncoc3c2)cnc1Cl)c1ccc(F)cc1 [Example 326, N-(5-(1,3-benzoxazol-6-yl)-2-chloro-3-pyridinyl)-4-fluorobenzenesulfonamide]
10 | 15.6 nM | 113 nM | 44 nM | CC(=O)Oc1cc(-c2ccc3ncsc3c2)cnc1Cl [Example 335, 5-(1,3-benzothiazol-6-yl)-2-chloro-3-pyridinyl acetate]
